Reference: US20150272992A1, “Treatment of Tumors with Activated Mesenchymal Stem Cells” (THE TEXAS A&M UNIVERSITY SYSTEM, priority 2012, published 2015)

Columns and labels:
Assay type in all cases: cell-based, human
[1] = system: MDA cells; assay: MDA cells incubated with agent alone (live cell counting, MTT, Annexin V/7AAD)
Description: (§1) hMSCs were plated at 10^5 cells in CCM in 6-well plates and incubated for 4 hrs. For pre-activation, hMSCs were incubated at 37° C. for 24 hrs in 2% CM containing 10 ng/mL TNF-α. For co-culture, an equal number of MDA cells in 2% CM with or without TNF-α (10 ng/mL) were added to hMSC containing wells. For transwell cultures, hMSCs were plated at 10^5 cells in the upper compartment (Transwell, 0.4 μm pore size; Corning; Corning, N.Y.), while an equal number of MDA cells was plated in the lower compartment in 2% CM with or without TNF-α (10 ng/mL). After 24 hrs, supernatants and cells were collected. For some experiments, MDA cells were treated with 1 to 100 ng/mL doxorubicin (Sigma-Aldrich) in 2% CM for 24 his at 37° C., prior to co-culture with hMSCs. In other experiments, hMSCs were treated with either apoptotic MDA cells or 1 μg/mL Polyinosinic-Polycytidylic acid [Poly(I:C); Sigma-Aldrich; St. Louis, Mo.] with or without TNF-α (10 ng/ml) for 24 hrs in 2% CM.
(§2) hMSCs and MDA cells from co-culture experiments were suspended in PBS and incubated with CD90-PE (Clone Thy1/310; Beckman Coulter) for 45 minutes on ice, washed with PBS by centrifugation, incubated at RT for 20 minutes with 300 ng/mL annexin V (AnnexinV-FITC Apoptosis Detection Kit; Sigma-Aldrich) and 4 μg/mL 7-aminoactinomycin D (7AAD; Sigma-Aldrich.), and analyzed by flow cytometry (Cytomics FC500; Beckman Coulter).

[2] = system: MDA cells; assay: Co-culture of hMSCs and MDA cells (Annexin V/7AAD apoptosis, live cell counting)
Description: as §1, §2
hMSCs (5×10^4 cells/well in 6 well plate) were treated with either TLR3 antibody (5 μg/mL; eBioscience, Inc; San Diego, Calif.), TRAIL antibody (25 μg/mL; BD Biosciences, Inc; San Jose, Calif.), or normal mouse IgG (5 or 25 μg/mL; PeproTech, Inc; Rocky Hill, N.J.) for 30 minutes at 37° C. in 2% CM with or without TNF-α (10 ng/mL) prior to co-culture with an equal number of MDA cells for 24 hrs.

[3] = system: TRAIL; assay: TRAIL expression in hMSCs (real-time RT-PCR, Western, ELISA, IF)
Description: (§3) Approximately 200 ng of total RNA extracted from cultured cells was used to synthesize double-stranded complementary DNA (cDNA) by reverse transcription (SuperScript III; Invitrogen). cDNA was analyzed by real-time PCR using TaqMan Universal PCR Master Mix (Applied Biosystems). For the assays, reactions were incubated at 50° C. for 2 minutes and at 95° C. for 10 minutes followed by 40 cycles at 95° C. for 15 seconds and 60° C. for 1 minute. For relative quantitation of gene expression, human-specific GAPDH primers and probe (Taq-Man Gene Expression Assays ID, Hs00266705_g1) were used. The other PCR primers and probes were human DKK3 (Hs00247426_m1), human TRAIL (TNFSF10: Hs00921974_m1) and human TLR3 (Hs01551078_m1) all purchased from the same source (Applied Biosystems).
(§4) Cultured cells were sorted using FACS after CD90-PE staining. Sorted samples were lysed (Cell Extraction Buffer; Invitrogen) and sonicated for 15-20 seconds (Ultrasonic Processor, 130W; Cole-Parmer; Vernon Hills, Ill.). […] The samples were heated at 97° C. for 5 minutes. Denatured protein samples were separated by electrophoresis on polyacrylamide gels (NuPAGE® Bis-Tris Gels; Invitrogen) and proteins transferred to Invitrolon™ PVDF membrane (Pore size—0.45 μm; Invitrogen) using Novex® NuPAGE® SDS-PAGE Gel System (Invitrogen). Membranes were then blocked for 1 hour at room temperature (RT) using blocking buffer that contained 5% non-fat dry milk (Cell Signaling Technologies, Inc.) in Tris-buffered saline with 0.1% Tween-20 (TBST). After blocking, membranes were incubated overnight at 4° C. with primary antibodies that were diluted in 5% BSA in TBST. The membranes were washed with TBST three times for 5 minutes each, and incubated with secondary antibodies, which were diluted in blocking buffer, for 1 hour at RT. After secondary antibody incubation, the membranes were washed with TBST three times and developed using West-Q Chemiluminescent Substrate Kit (Gendepot, Inc.; Barker, Tex.) for 1 minute. Images were taken using Molecular Imager VersaDoc™ MP 4000 (Bio-rad Laboratories). The membranes were washed with TBST three times and stripped using Restore™ Western Blot Stripping buffer (Thermo Fisher Scientific, Inc.) for 15 minutes at 37° C., followed by three more washes with TBST. The membranes were blocked for 1 hour using blocking buffer and incubated with β-actin primary antibody conjugated with HRP (1:10,000) diluted in blocking buffer followed by imaging as described above. […]
Conditioned media from cultured MDA and hMSCs were collected after 24 hour incubation. For the DKK-3 assay, culture media were filtered (Spin-X® Centrifuge Tube Filter, 0.22 μm; Corning, Inc) and the protein level was detected by ELISA (Human Dkk-3 DuoSet; R&D Systems). […]

[4] = system: TLR3; assay: TLR3 expression in hMSCs (real-time RT-PCR); settings: incubation with TNF-α
Description: as §3
hMSCs and MDA cell were separated by cell sorting (FACS, MoFlo™ XDP; Beckman Coulter; Brea, Calif.) after labeling with CD90-PE for 45 minutes on ice. RNA was extracted using RNeasy Mini Kit (QIAGEN). See Supplemental Information for real time RT-PCR analysis.

[5] = system: DKK3; assay: DKK3 expression in hMSCs (ELISA); settings: 10 ng/mL TNF-α
Description: Conditioned media from cultured MDA and hMSCs were collected after 24 hour incubation. For the DKK-3 assay, culture media were filtered (Spin-X® Centrifuge Tube Filter, 0.22 μm; Corning, Inc) and the protein level was detected by ELISA (Human Dkk-3 DuoSet; R&D Systems). For detection of TRAIL, the filtered medium was concentrated to 4 times (Vivaspin 6 (5 kDa MWCO; GE Healthcare; UK) and assayed by ELISA (Human TRAIL Quantikine ELISA kit; R&D Systems).

[6] = system: cyclin D1, cyclin D3 and p21; assay: Cyclin D1, cyclin D3 and p21 in MDA cells (Western blot, IF staining); settings: TNF-α alone
Description: as §4, with “Laboratories).” for “Laboratories). The membranes were washed with TBST three times and stripped using Restore™ Western Blot Stripping buffer (Thermo Fisher Scientific, Inc.) for 15 minutes at 37° C., followed by three more washes with TBST. The membranes were blocked for 1 hour using blocking buffer and incubated with β-actin primary antibody conjugated with HRP (1:10,000) diluted in blocking buffer followed by imaging as described above.”

[7] = system: β-catenin; assay: β-catenin in MDA cells (IF staining); settings: 24 hr incubation with rhDKK3
Description: For immunofluorescence staining, hMSCs were cultured in CCM overnight in 150 mm diameter plates and replated at 10,000 cells/cm^2 in chambered slides (Lab Tek II Chamber Slide™ System; Nunc Thermo Scientific, Rochester, N.Y.). […] After co-culture, the cells were washed with PBS twice and fixed with either methanol for anti-TRAIL antibody or 4% PFA for all other antibodies. The slides were further processed for immuno-staining as described above. The antibodies used for immunochemistry were anti-human nuclei mouse monoclonal antibody (Millipore, Billerica, Mass.) anti-GFP-Alexa Fluor® rat monoclonal antibody (RQ2; MBL Co. Ltd, Woburn, Mass.), anti-human TRAIL rabbit polyclonal antibodies (C92B9; Cell Signaling) anti-human cyclin D1 mouse monoclonal antibody (DCS6; Cell Signaling), anti-human p21 mouse monoclonal antibody (DCS60; Cell Signaling) and anti-human β-catenin mouse monoclonal antibodies (BD Bioscience, Sparks, Md.). Alexa Fluor® antibodies (Invitrogen) were used for secondary antibodies.

[8] = system: U87; assay: Live cell number / cell death of U87 cells; settings: 100 ng/ml rhTRAIL, 24 hour; compared with MDA cells

Molecule: COc1cccc2c1C(=O)c1c(O)c3c(c(O)c1C2=O)C[C@@](O)(C(=O)CO)C[C@@H]3O[C@H]1C[C@H](N)[C@H](O)[C@H](C)O1 [doxorubicin]
- apoptosis of MDA cells ([1]; 100 ng/mL (0.2 μM)): did not induce apoptosis
- proliferation of MDA (recovery of live cells) ([1]; 100 ng/mL (0.2 μM), 24 hrs): suppressed proliferation of MDA
- number of live MDA cells recovered from cultures ([1]; after 24 hrs, 1 to 100 ng/mL, dose dependent): decreased the number of live MDA cells

Molecule: TNF-α
- concentration adequate to activate hMSCs to induce MDA apoptosis ([2]; co-culture): 0.1 ng/mL
- activation of hMSCs to induce apoptosis of MDA cells in co-culture ([2]; over the range of 0.1 to 10 ng/mL): concentration dependent
- expression of TRAIL protein in hMSCs ([3]; 10 ng/mL TNF-α): up-regulated
- expression of TLR3 in hMSCs [4]: increased by incubation with TNF-α
- expression of DKK3 protein in hMSCs [5]: up-regulated
- expression of cyclin D1, D3 and p21 in MDA cells [6]: had no significant effect

Molecule: IFN-γ: pro-inflammatory agent
- up-regulation of TRAIL in hMSCs ([3]; 24 hour incubation of hMSCs with the agent, real time RT-PCR): 30 fold

Molecule: DNase
- increase of TRAIL in hMSCs by apoptotic MDA cells pre-treated with enzyme ([3]; 24 hr incubation): inhibited the increase of TRAIL in hMSCs

Molecule: rhDKK-3: recombinant human DKK3 (R&D Systems)
- number of β-catenin expressing MDA [7]: decreased the number of β-catenin expressing MDA
- proliferation of MDA cells (MTT, live cell number) ([1]; 24 hr incubation with rhDKK3): decreased
- viability of MDA cells (Annexin V & 7AAD) ([1]; rhDKK3 5 ng/mL, 24 hr): without affecting the viability of MDA cells

Molecule: Polyinosinic-Polycytidylic acid [poly(I:C)]
- MDA apoptosis when agent added to co-cultures ([2]; poly(I:C)/TNF-α pre-activated hMSCs, 24 hr): small but statistically significant increase in MDA apoptosis
- expression of TRAIL in hMSCs ([3]; 1 μg/mL Poly(I:C), 24 hrs): increased expression of TRAIL in hMSCs

B1: rhTRAIL: recombinant human TRAIL (R&D Systems) (protein, UniProt P50591 39-281, looked up)
extracellular domain: TNELKQMQDKYSKSGIACFLKEDDSYWDPNDEESMNSPCWQVKWQLRQLVRKMILRTSEETISTVQEKQQNISPLVRERGPQRVAAHITGTRGRSNTLSSPNSKNEKALGRKINSWESSRSGHSFLSNLHLRNGELVIHEKGFYYIYSQTYFRFQEEIKENTKNDKQMVQYIYKYTSYPDPILLMKSARNSCWSKDAEYGLYSIYQGGIFELKENDRIFVSVTNEHLIDMDHEASFFGAFLVG
modifications: extracellular domain
- sensitivity of U87 cells (cell death) [8]: less sensitive to rhTRAIL than MDA cells
